{"source": "patent US7482415B2", "about": "“Process for producing fluoroionomer, method for purification and concentration of the ionomer, and method of film formation” (Daikin Industries, Ltd., priority 2000, dated 2009)", "type_in_all_cases": "physicochemical", "key": {"[1]": {"assay": "Dissolution test (Solvent A): dissolving power of solvents for S monomer, visually evaluated", "design": "key: A: Completely dissolved; B: Partially dissolved or swelled; C: Not dissolved", "settings": "small amount of S monomer", "method": "(§1) Each solvent shown in the following table (50 cc) was placed in an individual test tube, and a small amount of S monomer was added to test the dissolving power.\nThe dissolving power was visually evaluated on the following scale of three. […] A: Completely dissolved; B: Partially dissolved or swelled; C: Not dissolved."}, "[2]": {"assay": "Solubility test of S monomer in solvents"}, "[3]": {"assay": "Dissolution test (Solvent D): dissolving power of acids for S monomer, visually evaluated", "design": "key: A: Completely dissolved; B: Partially dissolved or swelled; C: Not dissolved", "settings": "small amount of S monomer", "method": "as §1\nThe dissolving power was visually evaluated on the following scale of three. […] A: Completely dissolved; B: Partially dissolved or swelled; C: Not dissolved"}}}
{"compound": "O=S(=O)([O-])C(F)(F)C(F)(F)OC(F)=C(F)F.[Na+]", "note": "[S monomer, CF2═CFOCF2CF2SO3Na]", "values": [{"measurement": "Dissolving power", "setting": "[1]; solvent Acetic acid (50 cc)", "value": "A"}, {"measurement": "Dissolving power", "setting": "[1]; solvent Acetone (50 cc)", "value": "A"}, {"measurement": "Dissolving power", "setting": "[1]; solvent Acetonitrile (50 cc)", "value": "A"}, {"measurement": "Dissolving power", "setting": "[1]; solvent Benzene (50 cc)", "value": "C"}, {"measurement": "Dissolving power", "setting": "[1]; solvent Carbon disulfide (50 cc)", "value": "C"}, {"measurement": "Dissolving power", "setting": "[1]; solvent Chloroform (50 cc)", "value": "C"}, {"measurement": "Dissolving power", "setting": "[1]; solvent Diethyl ether (50 cc)", "value": "C"}, {"measurement": "Dissolving power", "setting": "[1]; solvent Dimethylformamide (50 cc)", "value": "A"}, {"measurement": "Dissolving power", "setting": "[1]; solvent Diphenyl ether (50 cc)", "value": "C"}, {"measurement": "Dissolving power", "setting": "[1]; solvent Ethanol (50 cc)", "value": "A"}, {"measurement": "Dissolving power", "setting": "[1]; solvent Ethyl acetate (50 cc)", "value": "A"}, {"measurement": "Dissolving power", "setting": "[1]; solvent Hexane (50 cc)", "value": "C"}, {"measurement": "Dissolving power", "setting": "[1]; solvent Isopropanol (50 cc)", "value": "A"}, {"measurement": "Dissolving power", "setting": "[1]; solvent Methanol (50 cc)", "value": "A"}, {"measurement": "Dissolving power", "setting": "[1]; solvent Pyridine (50 cc)", "value": "A"}, {"measurement": "Dissolving power", "setting": "[1]; solvent Tetrahydrofuran (50 cc)", "value": "A"}, {"measurement": "Dissolving power", "setting": "[1]; solvent Trifluoroacetic acid (50 cc)", "value": "A"}, {"measurement": "Solubility", "setting": "[2]; in Dimethoxyethane", "value": 2700, "unit": "mM"}, {"measurement": "Solubility", "setting": "[2]; in Hexafluoroisopropanol", "value": 30, "unit": "mM"}, {"measurement": "Solubility", "setting": "[2]; in Trifluoroacetic acid", "value": 700, "unit": "mM"}, {"measurement": "Solubility", "setting": "[2]; in sec-Butanol", "value": 770, "unit": "mM"}, {"measurement": "Solubility", "setting": "[2]; in t-Butanol", "value": 530, "unit": "mM"}, {"measurement": "Dissolving power", "setting": "[3]; acid Acetic acid (50 cc)", "value": "A"}, {"measurement": "Dissolving power", "setting": "[3]; acid CF2═CFCF2COOH (50 cc)", "value": "A"}, {"measurement": "Dissolving power", "setting": "[3]; acid Hexafluoroisopropanol (50 cc)", "value": "A"}, {"measurement": "Dissolving power", "setting": "[3]; acid Hydrofluoric acid (50 cc)", "value": "A"}, {"measurement": "Dissolving power", "setting": "[3]; acid Trifluoroacetic acid (50 cc)", "value": "A"}]}
